Test results from patent US10703765B2 (priority 2014, dated 2020).
Structures can show the parent of a compound that is named as a salt. Where two headings read alike, the source gives them in different places.

Target: human σ1 receptor (Homo sapiens, UniProt Q99720)
Assay: biochemical
Format: binding
Set-up: μ and σ1 dual binding: key to the marks not given beside the values
[1] = read-out: μ and σ1 dual binding
[2] = combined class from Ki-σ1 (human σ1 receptor, A1) and Ki-μ (human μ-opioid receptor, A2) radioligand binding

Chain of human σ1 receptor (Q99720 whole entry): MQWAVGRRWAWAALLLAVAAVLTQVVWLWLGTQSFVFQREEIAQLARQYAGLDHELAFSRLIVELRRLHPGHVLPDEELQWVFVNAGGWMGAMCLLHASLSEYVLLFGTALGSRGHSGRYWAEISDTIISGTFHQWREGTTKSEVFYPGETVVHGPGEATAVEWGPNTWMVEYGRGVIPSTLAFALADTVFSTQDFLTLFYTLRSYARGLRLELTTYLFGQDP

Work on CC(=O)Nc1cccc(CCN2CCC3(CC2)CN(Cc2ccc(C(F)(F)F)cn2)C(=O)CO3)c1 [Example 251, N-(3-(2-(3-oxo-4-((5-(trifluoromethyl)pyridin-2-yl)methyl)-1-oxa-4,9-diazaspiro[5.5]undecan-9-yl)ethyl)phenyl)acetamide hydrochloride] yielded a Ki [1] of less than 0.5 µM.

For CC(=O)Nc1ccc(CCN2CCC3(CC2)CN(c2ccccc2)C(=O)C(C)O3)nc1 (stereo not shown) [Example 252, N-(6-(2-(2-methyl-3-oxo-4-phenyl-1-oxa-4,9-diazaspiro[5.5]undecan-9-yl)ethyl)pyridin-3-yl)acetamide], the Ki [1] was greater than 0.5 µM.

CC(=O)Nc1ccnc(CCN2CCC3(CC2)CN(c2ccccc2)C(=O)C(C)O3)c1 (stereo not shown) [Example 253, N-(2-(2-(2-methyl-3-oxo-4-phenyl-1-oxa-4,9-diazaspiro[5.5]undecan-9-yl)ethyl)pyridin-4-yl)acetamide hydrochloride] was tested, and the Ki [1] was greater than 0.5 µM.

With CC(=O)Nc1cccc(CCN2CCC3(CC2)CN(c2ccccc2)C(=O)C(C)O3)n1.Cl (stereo not shown) [Example 254, N-(6-(2-(2-methyl-3-oxo-4-phenyl-1-oxa-4,9-diazaspiro[5.5]undecan-9-yl)ethyl)pyridin-2-yl)acetamide hydrochloride] the “μ and σ1 dual binding” value was “++”.

In the case of CC(=O)Nc1cc(CCN2CCC3(CC2)CN(c2ccccc2)C(=O)C(C)O3)ccn1 (stereo not shown) [Example 255, N-(4-(2-(2-methyl-3-oxo-4-phenyl-1-oxa-4,9-diazaspiro[5.5]undecan-9-yl)ethyl)pyridin-2-yl)acetamide hydrochloride], the Ki [1] is reported as greater than 0.5 µM.

In the case of CC1OC2(CCN(CCc3cccc(NS(C)(=O)=O)c3)CC2)CN(c2ccccc2)C1=O (stereo not shown) [Example 256, N-(3-(2-(2-methyl-3-oxo-4-phenyl-1-oxa-4,9-diazaspiro[5.5]undecan-9-yl)ethyl)phenyl)methanesulfonamide], the Ki is reported as less than 0.5 µM.

Molecule CC1OC2(CCN(CCc3ccccc3NS(C)(=O)=O)CC2)CN(c2ccccc2)C1=O (stereo not shown) [Example 257, N-(2-(2-(2-methyl-3-oxo-4-phenyl-1-oxa-4,9-diazaspiro[5.5]undecan-9-yl)ethyl)phenyl)methanesulfonamide] has a Ki of less than 0.5 µM.

In the case of CC1OC2(CCN(CCc3ccc(NS(C)(=O)=O)cc3)CC2)CN(c2ccccc2)C1=O (stereo not shown) [Example 258, N-(4-(2-(2-methyl-3-oxo-4-phenyl-1-oxa-4,9-diazaspiro[5.5]undecan-9-yl)ethyl)phenyl)methanesulfonamide], the “μ and σ1 dual binding” value [2] is reported as “++”.

Work on CS(=O)(=O)Nc1cccc(CN2CC3(CCN(CCc4ccccc4)CC3)OCC2=O)c1 [Example 259, N-(3-((3-oxo-9-phenethyl-1-oxa-4,9-diazaspiro[5.5]undecan-4-yl)methyl)phenyl)methanesulfonamide hydrochloride] yielded a Ki [1] greater than 0.5 µM.

Work on CS(=O)(=O)Nc1cccc(CCN2CCC3(CC2)CN(c2ccccc2)C(=O)C2(CC2)O3)c1 [Example 260, N-[3-(2-{13-oxo-12-phenyl-4-oxa-8,12-diazadispiro[2.1.5.3]tridecan-8-yl}ethyl)phenyl]methanesulfonamide hydrochloride] yielded a Ki [1] of less than 0.5 µM.

CC1OC2(CCN(CCc3cccc(NS(=O)(=O)C(C)C)c3)CC2)CN(c2ccccc2)C1=O (stereo not shown) [Example 261, N-(3-(2-(2-methyl-3-oxo-4-phenyl-1-oxa-4,9-diazaspiro[5.5]undecan-9-yl)ethyl)phenyl)propane-2-sulfonamide hydrochloride] gave a Ki of less than 0.5 µM.

CC1OC2(CCN(CCc3cccc(NC(N)=O)c3)CC2)CN(c2ccccc2)C1=O (stereo not shown) [Example 262, 1-(3-(2-(2-methyl-3-oxo-4-phenyl-1-oxa-4,9-diazaspiro[5.5]undecan-9-yl)ethyl)phenyl)urea] was tested, and the Ki was less than 0.5 µM.

NC(=O)Nc1cccc(CCN2CCC3(CC2)CN(Cc2ccc(C(F)(F)F)cn2)C(=O)C2(CC2)O3)c1 [Example 263, {3-[2-(13-oxo-12-{[5-(trifluoromethyl)pyridin-2-yl]methyl}-4-oxa-8,12-diazadispiro[2.1.5.3]tridecan-8-yl)ethyl]phenyl}urea] was tested, and the Ki [1] was less than 0.5 µM.

Molecule CC1OC2(CCN(CCc3cccc(NC(N)=O)n3)CC2)CN(c2ccccc2)C1=O (stereo not shown) [Example 264, 1-(6-(2-(2-methyl-3-oxo-4-phenyl-1-oxa-4,9-diazaspiro[5.5]undecan-9-yl)ethyl)pyridin-2-yl)urea] has a Ki of less than 0.5 µM.

In the case of CC1OC2(CCN(CCc3cccc(NS(N)(=O)=O)c3)CC2)CN(c2ccccc2)C1=O (stereo not shown) [Example 265, N-[3-(2-{2-methyl-3-oxo-4-phenyl-1-oxa-4,9-diazaspiro[5.5]undecan-9-yl}ethyl)phenyl]aminosulfonamide], the “μ and σ1 dual binding” value [2] is reported as “++”.

With CC1OC2(CCN(CCc3cccc(C(N)=O)c3)CC2)CN(c2ccccc2)C1=O (stereo not shown) [Example 266, 3-(2-(2-methyl-3-oxo-4-phenyl-1-oxa-4,9-diazaspiro[5.5]undecan-9-yl)ethyl)benzamide] the Ki was less than 0.5 µM.

Work on CC1OC2(CCN(CCc3ccc(C(=O)O)cc3)CC2)CN(c2ccccc2)C1=O (stereo not shown) [Example 267, 4-(2-(2-methyl-3-oxo-4-phenyl-1-oxa-4,9-diazaspiro[5.5]undecan-9-yl)ethyl)benzoic acid] yielded a Ki [1] greater than 0.5 µM.

In the case of CC1OC2(CCN(CCc3ccccc3)CC2)CN(c2cccc(C(=O)O)c2)C1=O (stereo not shown) [Example 268, 3-(2-methyl-3-oxo-9-phenethyl-1-oxa-4,9-diazaspiro[5.5]undecan-4-yl)benzoic acid], the Ki [1] is reported as greater than 0.5 µM.

In the case of CC1OC2(CCN(CCC(=O)O)CC2)CN(c2ccccc2)C1=O (stereo not shown) [Example 269, 3-(2-methyl-3-oxo-4-phenyl-1-oxa-4,9-diazaspiro[5.5]undecan-9-yl)propanoic acid], the Ki [1] is reported as greater than 0.5 µM.

With O=C(O)CC1OC2(CCN(CCc3ccccc3)CC2)CN(c2ccccc2)C1=O (stereo not shown) [Example 270, 2-(3-oxo-9-phenethyl-4-phenyl-1-oxa-4,9-diazaspiro[5.5]undecan-2-yl)acetic acid hydrochloride] the Ki [1] was greater than 0.5 µM.

With CC1OC2(CCN(CCc3ccccc3)CC2)CN(c2cccc(C(=O)N(C)C)c2)C1=O.Cl (stereo not shown) [Example 271, N,N-dimethyl-3-(2-methyl-3-oxo-9-phenethyl-1-oxa-4,9-diazaspiro[5.5]undecan-4-yl)benzamide hydrochloride] the “μ and σ1 dual binding” value was “++”.

With CN(C)C(=O)CC1OC2(CCN(CCc3ccccc3)CC2)CN(c2ccccc2)C1=O.Cl (stereo not shown) [Example 272, N,N-dimethyl-2-(3-oxo-9-phenethyl-4-phenyl-1-oxa-4,9-diazaspiro[5.5]undecan-2-yl)acetamide hydrochloride] the “μ and σ1 dual binding” value was “++”.

CC1OC2(CCN(CCc3ccc(C(=O)N(C)C)cc3)CC2)CN(c2ccccc2)C1=O (stereo not shown) [Example 273, N,N-dimethyl-4-(2-(2-methyl-3-oxo-4-phenyl-1-oxa-4,9-diazaspiro[5.5]undecan-9-yl)ethyl)benzamide hydrochloride] gave a Ki [1] greater than 0.5 µM.

CNC(=O)c1ccc(CCN2CCC3(CC2)CN(c2ccccc2)C(=O)C(C)O3)cc1 (stereo not shown) [Example 274, N-methyl-4-(2-(2-methyl-3-oxo-4-phenyl-1-oxa-4,9-diazaspiro[5.5]undecan-9-yl)ethyl)benzamide hydrochloride] was tested, and the Ki [1] was less than 0.5 µM.

With CNC(=O)CCN1CC2(CCN(CCc3ccccc3)CC2)OC2(CC2)C1=O [Example 275, N-methyl-3-[13-oxo-8-phenethyl-4-oxa-8,12-diazadispiro[2.1.5.3]tridecan-12-yl]propanamide hydrochloride] the Ki [1] was greater than 0.5 µM.

For CNC(=O)c1cccc(CCN2CCC3(CC2)CN(c2ccccc2F)C(=O)C(C)O3)c1 (stereo not shown) [Example 276, 3-(2-(4-(2-fluorophenyl)-2-methyl-3-oxo-1-oxa-4,9-diazaspiro[5.5]undecan-9-yl)ethyl)-N-methylbenzamide], the Ki was less than 0.5 µM.

For O=C1N(c2ccccc2)CC2(CCN(CC(O)c3ccccc3)CC2)OC12CC2 (stereo not shown) [Example 277, 8-(2-hydroxy-2-phenylethyl)-12-phenyl-4-oxa-8,12-diazadispiro[2.1.5.3]tridecan-13-one], the Ki was less than 0.1 µM.

O=C1COC2(CCN(CC(O)c3ccccc3)CC2)CN1Cc1ccc(C(F)(F)F)cn1 (stereo not shown) [Example 278, 9-(2-hydroxy-2-phenylethyl)-4-((5-(trifluoromethyl)pyridin-2-yl)methyl)-1-oxa-4,9-diazaspiro[5.5]undecan-3-one] showed a Ki [1] of less than 0.5 µM.

Cl.O=C1N(CCCO)CC2(CCN(CCc3ccccc3)CC2)OC12CC2 [Example 279, 12-(3-hydroxypropyl)-8-phenethyl-4-oxa-8,12-diazadispiro[2.1.5.3]tridecan-13-one hydrochloride] was tested, and the “μ and σ1 dual binding” value was “++”.

In the case of CC1OC2(CCN(CCc3ccc(N)nc3)CC2)CN(c2ccccc2)C1=O (stereo not shown) [Example 280, 9-(2-(6-aminopyridin-3-yl)ethyl)-2-methyl-4-phenyl-1-oxa-4,9-diazaspiro[5.5]undecan-3-one], the Ki [1] is reported as greater than 0.5 µM.

CC(C)C1OC2(CCN(CCc3ccccc3OCCO)CC2)CN(c2ccccc2F)C1=O (stereo not shown) [Example 281, 4-(2-fluorophenyl)-9-(2-(2-hydroxyethoxy)phenethyl)-2-isopropyl-1-oxa-4,9-diazaspiro[5.5]undecan-3-one] was tested, and the “μ and σ1 dual binding” value [2] was “++”.

CC1OC2(CCN(CCc3cccc(OCCO)c3)CC2)CN(c2ccccc2F)C1=O (stereo not shown) [Example 282, 4-(2-fluorophenyl)-9-(3-(2-hydroxyethoxy)phenethyl)-2-methyl-1-oxa-4,9-diazaspiro[5.5]undecan-3-one] was tested, and the Ki was less than 0.1 µM.

In the case of O=C1C(CO)OC2(CCN(CCc3ccccc3)CC2)CN1c1ccccc1 (stereo not shown) [Example 283, 2-(hydroxymethyl)-9-phenethyl-4-phenyl-1-oxa-4,9-diazaspiro[5.5]undecan-3-one], the Ki [1] is reported as less than 0.5 µM.

O=C1COC2(CCN(CCc3ccccc3)CC2)CN1Cc1ncc[nH]1 [Example 284, 4-((1H-imidazol-2-yl)methyl)-9-phenethyl-1-oxa-4,9-diazaspiro[5.5]undecan-3-one hydrochloride] gave a Ki [1] greater than 0.5 µM.

For O=C1COC2(CCN(Cc3ccccc3)CC2)CN1c1ccccc1O [Example 285, 9-benzyl-4-(2-hydroxyphenyl)-1-oxa-4,9-diazaspiro[5.5]undecan-3-one], the “μ and σ1 dual binding” value [2] was “++”.

With O=C1COC2(CCN(CCc3ccccc3)CC2)CN1c1ccccc1O [Example 286, 4-(2-hydroxyphenyl)-9-phenethyl-1-oxa-4,9-diazaspiro[5.5]undecan-3-one] the “μ and σ1 dual binding” value [2] was “++”.

For O=C1COC2(CCN(Cc3ccccc3)CC2)CN1c1cccc(O)c1 [Example 287, 9-benzyl-4-(3-hydroxyphenyl)-1-oxa-4,9-diazaspiro[5.5] undecan-3-one], the “μ and σ1 dual binding” value [2] was “++”.
